Reference: US20260256792A1, “TREATMENT OF CHRONIC SPONTANEOUS URTICARIA BY ADMINISTERING (R)-2-[3-[4-AMINO-3-(2-FLUORO-4-PHENOXY-PHENYL)PYRAZOLO[3,4-D]PYRIMIDIN-1-YL]PIPERIDINE-1-CARBONYL]-4-METHYL-4-[4-(OXETAN-3-YL)PIPERAZIN-1-YL]PENT-2-ENENITRILE” (priority 2023, published 2026)

Tested on: moderate-to-severe chronic spontaneous urticaria (CSU)
Experiment: Phase 2 CSU study: urticaria activity score over 7 days (UAS7)
Type: in vivo, human
Set-up: key to UAS7 Median / UAS7 Change from baseline Median / UAS7 change from baseline, Q1 / UAS7 change from baseline, Q3 / UAS7 change from baseline, Max / UAS7 Change from baseline LS Mean (SE): UAS7 points; daily UAS score ranges 0–6 points/day, over 7 days
Details: for UAS7 change from baseline at Week 12, LS Mean (SE): ANCOVA; for UAS7 Mean (SD) / UAS7 Median: End of Study; for UAS7 % Change difference for rilzabrutinib vs. placebo LS Mean (95% CI) / UAS7 % Change from baseline LS Mean (SE) / UAS7 Change difference for rilzabrutinib vs. placebo LS Mean (95% CI) / UAS7 Change from baseline LS Mean (SE): ITT Population
Excerpt: The study comprises a 12 week, randomized, double-blind, placebo-controlled, multi-center, dose-ranging efficacy and safety phase, followed by a 40 week open label extension (OLE) phase (see FIG. 1). The study consists of three phases and an optional OLE phase. […] Clinically, CSU is characterized by the spontaneous and recurrent appearance of pruritic hives. The proposed primary endpoints were the UAS7 at Week 12 in EU and EU reference countries and the ISS7 in the US. Regardless of where a participant was from, all assessments were the same. The UAS7 score is a composite score containing both the HSS7 and the ISS7. This allowed a global assessment of the two key components of urticaria: hives and itch. […] The UAS is a validated PRO measure. […] The daily UAS scores range from 0 to 6 point/day. […] Patients were to complete the UAS using the e-diary. […] The following secondary endpoints were to be analyzed using the same approach as for the primary endpoint: • Change from baseline in UAS7 at Week 4 • Change from baseline in UAS7 at Week 12 (for US and US reference countries) • Change from baseline in ISS7 at Week 12 (except US and US reference countries) • Change from baseline in HSS7 at Week 12 The following responder secondary endpoints were to be analyzed using the Cochran-Mantel-Haenszel test adjusted by region: • Proportion of participants with UAS7<6 at Week 12 • Proportion of participants with UAS7=0 at Week 12 Participants who received selected prohibited medications and/or rescue medications were to be considered as non-responders for time points after the medication usage. For other participants, all available data including those collected during the off-treatment period were to be used to determine the responder/non-responder status. Missing data were to be considered as non-responders.

[1] = 400 mg TID, Omalizumab-Naïve Population (N = 35), double-blind period, last week block of Table 17 (week heading not shown), n observed/imputed 5 (3/2)
[2] = 400 mg TID, Patients with Prior Omalizumab Use, Including Omalizumab-Incomplete Responders (N = 6), double-blind period, last week block of Table 17 (week heading not shown), n observed/imputed 2 (0/2)
[3] = 400 mg TID, Week 12, omalizumab-naïve
[4] = 400 mg TID, omalizumab-naïve population
[5] = 400 mg TID, omalizumab-naïve population with outlier removed
[6] = 400 mg TID, Prior Omalizumab Use

CC(C)(C=C(C#N)C(=O)N1CCC[C@@H](n2nc(-c3ccc(Oc4ccccc4)cc3F)c3c(N)ncnc32)C1)N1CCN(C2COC2)CC1 [rilzabrutinib, (R)-2-[3-[4-amino-3-(2-fluoro-4-phenoxy-phenyl)pyrazolo[3,4-d]pyrimidin-1-yl]piperidine-1-carbonyl]-4-methyl-4-[4-(oxetan-3-yl)piperazin-1-yl]pent-2-enenitrile]
UAS7 change from baseline at Week 12, LS Mean Diff vs. placebo (95% CI) (400 mg TID, ITT population): −6.76 (−12.01, −1.51) | UAS7 change from baseline at Week 12, Mean (SD) (400 mg TID, ITT population): −20.30 (12.41) ^ | UAS7 change from baseline at Week 12, Median (400 mg TID, ITT population): −20.33 | UAS7 change from baseline at Week 12, LS Mean (SE) (400 mg TID, ITT population): −17.95 | UAS7 change from baseline at Week 12, LS Mean (SE) (400 mg TID, ITT population, listed as Rilzabrutinib): −17.95 (1.95) | decrease from baseline in UAS7 (400 mg TID, ITT population, belongs to LS mean change −12.72): 40.18% | LS mean change in UAS7 from baseline to Week 12 (see Table 18) (400 mg TID, ITT population, sentence on reductions following one week of treatment): −12.72 | UAS7 Change from baseline Mean (SD) [1]: −11.40 (6.62) | UAS7 Change from baseline Median [1]: −14.00 | UAS7 Percent change from baseline Mean (SD) [1]: −38.24 (25.31) % | UAS7 Percent change from baseline Median [1]: −45.95% | UAS7 change from baseline, Max [1]: 0.0 | UAS7 change from baseline, Min [1]: −17.0 | UAS7 change from baseline, Q1 [1]: −14.00 | UAS7 change from baseline, Q3 [1]: −12.00 | UAS7 percent change from baseline, Max [1]: 0.0% | UAS7 percent change from baseline, Q1 [1]: −50.00% | UAS7 percent change from baseline, Q3 [1]: −28.57% | UAS7 Change from baseline Mean (SD) [2]: −3.50 (4.95) | UAS7 Change from baseline Median [2]: −3.50 | UAS7 Percent change from baseline Mean (SD) [2]: −21.88 (30.94) % | UAS7 Percent change from baseline Median [2]: −21.88% | UAS7 change from baseline, Max [2]: 0.0 | UAS7 change from baseline, Min [2]: −7.0 | UAS7 change from baseline, Q1 [2]: −7.00 | UAS7 change from baseline, Q3 [2]: 0.00 | UAS7 percent change from baseline, Max [2]: 0.0% | UAS7 percent change from baseline, Min [2]: −43.8% | UAS7 percent change from baseline, Q1 [2]: −43.75% | UAS7 percent change from baseline, Q3 [2]: 0.00% | participants with UAS7 of 0 [3]: 20.0% | participants with UAS7 of ≤6 [3]: 34.3% | LS mean reduction in UAS7 from baseline to Week 12 (see Table 19) [4]: −11.44 | UAS7 at Week 12, Mean (SD) [4]: 11.00 (9.90) | UAS7 at Week 12, Median [4]: 12.25 | UAS7 change from baseline at Week 12, LS Mean Diff vs. placebo (95% CI) [4]: −6.75 (−12.23, −1.26) | UAS7 change from baseline at Week 12, Mean (SD) [4]: −19.04 (11.40) ^ | UAS7 change from baseline at Week 12, Median [4]: −18.92 | UAS7 at Week 12, Mean (SD) [5]: 11.00 (9.90) | UAS7 at Week 12, Median [5]: 12.25 | UAS7 change from baseline at Week 12, LS Mean Diff vs. placebo (95% CI) [5]: −7.50 (−13.02, −1.97) | UAS7 change from baseline at Week 12, Mean (SD) [5]: −19.04 (11.40) ^ | UAS7 change from baseline at Week 12, Median [5]: −18.92 | UAS7 change from baseline at Week 12, LS Mean (SE) [5]: −17.50 | UAS7 change from baseline at Week 12, LS Mean (SE) (400 mg TID, omalizumab-naïve population with outlier removed, listed as Rilzabrutinib): −17.50 (2.06) | UAS7 change from baseline at Week 12, LS Mean (SE) [4]: −16.89 | UAS7 change from baseline at Week 12, LS Mean (SE) (400 mg TID, omalizumab-naïve population, listed as Rilzabrutinib): −16.89 (2.04) | UAS7 Mean (SD) (400 mg BID, Omalizumab-Naïve): 15.60 (17.52) | UAS7 Median (400 mg BID, Omalizumab-Naïve): 14.00 | UAS7 Mean (SD) (400 mg QPM, Omalizumab-Naïve): 11.70 (16.82) | UAS7 Median (400 mg QPM, Omalizumab-Naïve): 5.00 | UAS7 Mean (SD) (400 mg TID, Omalizumab-Naïve): 21.40 (11.74) | UAS7 Median (400 mg TID, Omalizumab-Naïve): 20.00 | UAS7 Mean (SD) [6]: 15.58 (9.31) | UAS7 Median [6]: 15.58 | UAS7 % Change difference for rilzabrutinib vs. placebo LS Mean (95% CI) (400 mg BID, Week 2): −17.26% | UAS7 % Change from baseline LS Mean (SE) (400 mg BID, Week 2): −36.13% | UAS7 Change difference for rilzabrutinib vs. placebo LS Mean (95% CI) (400 mg BID, Week 2): −4.49 | UAS7 Change from baseline LS Mean (SE) (400 mg BID, Week 2): −10.82 | UAS7 % Change difference for rilzabrutinib vs. placebo LS Mean (95% CI) (400 mg QPM, Week 3): −7.92% | UAS7 % Change from baseline LS Mean (SE) (400 mg QPM, Week 3): −29.55% | UAS7 Change difference for rilzabrutinib vs. placebo LS Mean (95% CI) (400 mg QPM, Week 3): −1.91 | UAS7 Change from baseline LS Mean (SE) (400 mg QPM, Week 3): −9.50 | UAS7 % Change difference for rilzabrutinib vs. placebo LS Mean (95% CI) (400 mg QPM, Week 5): −0.72% | UAS7 % Change from baseline LS Mean (SE) (400 mg QPM, Week 5): −32.52% | UAS7 Change difference for rilzabrutinib vs. placebo LS Mean (95% CI) (400 mg QPM, Week 5): −0.26
